Test results taken from ChEMBL document CHEMBL1201862, “PubChem BioAssay data set” (2004).
“And” between values parts separate entries of the source, which are not always exact repeats. Identical values can stand only once. The source made the active and inactive calls.

Legend:
[1] = target: Cytochrome P450 2D6 (Homo sapiens, UniProt P10635);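 also: CYP2D6 member of a cytochrome P450 panel assay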
[2] = target: T1, Heat shock factor protein 1 (Mus musculus, UniProt P38532); assay: decrease of HSF1-responsive luciferase luminescence – cell-based, NIH3T3, dose retest, confirmation (AID 2382); assay type: functional;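 also: NIH3T3 fibroblasts with HSF1-driven luciferase reporter stressed by proteasome inhibitor MG132; luminescence from HSF1-driven luciferase expression after 8 hours of MG132 stress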
T1 sequence (P38532 whole entry): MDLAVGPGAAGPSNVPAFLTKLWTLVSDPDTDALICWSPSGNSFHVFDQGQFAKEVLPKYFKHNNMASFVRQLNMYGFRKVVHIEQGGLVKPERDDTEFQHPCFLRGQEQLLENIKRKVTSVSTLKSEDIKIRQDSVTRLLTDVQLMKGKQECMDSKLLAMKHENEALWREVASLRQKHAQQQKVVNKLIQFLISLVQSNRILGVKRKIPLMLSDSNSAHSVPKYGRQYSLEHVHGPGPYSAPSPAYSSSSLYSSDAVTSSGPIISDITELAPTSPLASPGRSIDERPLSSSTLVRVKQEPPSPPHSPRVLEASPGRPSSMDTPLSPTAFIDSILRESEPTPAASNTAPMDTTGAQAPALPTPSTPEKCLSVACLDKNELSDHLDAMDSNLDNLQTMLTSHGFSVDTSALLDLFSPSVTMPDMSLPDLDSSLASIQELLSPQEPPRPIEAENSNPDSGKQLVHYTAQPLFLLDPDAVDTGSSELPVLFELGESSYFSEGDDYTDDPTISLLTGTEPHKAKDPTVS

[3] = luciferase reporter signal suppression in cells – H4 neuroglioma cells, luminescence, dose response (AID 1990); assay type: functional, cell-based
[4] = Luminescence Cell-Based Dose Response HTS to Identify Inhibitors of 5'UTR Stem-Loop Driven Prion Protein mRNA Translation in H4 Neuroglioblastoma Cells. [Related pubchem assays: 1827 (Project Summary), 1813 (Primary HTS)]; assay type: functional
[5] = alpha-synuclein stem-loop luciferase translation blockers – H4 neuroglioma cells, luminescence, confirmation (AID 1988); assay type: functional, cell-based
[6] = Luminescence Cell-Based Dose Retest to Confirm Inhibitors of Cancer Stem Cells. [Related pubchem assays (depositor defined):AID2717, AID2721]; assay type: functional; settings: Homo sapiens
[7] = target: Cytochrome P450 3A4 (Homo sapiens, UniProt P08684);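 also: CYP3A4 tested as one member of a cytochrome P450 panel screen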
[8] = tested on: H4; assay: Luminescence Cell-Based Dose Response HTS to Identify Activators of 5'UTR Stem-Loop Driven Prion Protein mRNA Translation in H4 Neuroglioblastoma Cells. [Related pubchem assays: 1829 (Project Summary), 1814 (Primary HTS)]; assay type: functional; settings: Homo sapiens
[9] = Luminescence Cell-Based Dose Response HTS to Identify Activators of Luciferase Translation or Activity in H4 […] Cells. [Related pubchem assays: 1829 (Project Summary), 1814 (Primary HTS)]; assay type: functional
[10] = target: T2, Cytochrome P450 1A2 (Homo sapiens, UniProt P05177);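 also: PubChem cytochrome P450 panel assay, CYP1A2 panel member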
T2 sequence (P05177 whole entry): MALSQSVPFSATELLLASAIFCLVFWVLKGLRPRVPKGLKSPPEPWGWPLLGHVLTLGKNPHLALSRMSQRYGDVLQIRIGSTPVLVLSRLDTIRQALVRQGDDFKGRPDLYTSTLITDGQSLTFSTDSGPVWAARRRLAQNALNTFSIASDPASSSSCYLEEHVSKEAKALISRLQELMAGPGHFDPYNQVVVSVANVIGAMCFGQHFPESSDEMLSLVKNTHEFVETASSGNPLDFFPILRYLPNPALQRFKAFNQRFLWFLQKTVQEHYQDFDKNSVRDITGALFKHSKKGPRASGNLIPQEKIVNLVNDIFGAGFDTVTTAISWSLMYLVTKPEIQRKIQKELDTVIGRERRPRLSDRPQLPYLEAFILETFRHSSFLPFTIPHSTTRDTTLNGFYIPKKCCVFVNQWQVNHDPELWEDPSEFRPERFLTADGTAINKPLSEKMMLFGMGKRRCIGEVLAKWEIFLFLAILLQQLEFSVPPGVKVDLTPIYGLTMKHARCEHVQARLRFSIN

[11] = target: Cytochrome P450 2C9 (Homo sapiens, UniProt P11712)
[12] = target: T3, Rac GTPase-activating protein 1 (Homo sapiens, UniProt Q9H0H5); assay: blockers of MgcRacGAP-driven Rac1 GTP hydrolysis – biochemical, ADP Hunter fluorescence, primary and confirmatory, confirmation (AID 624330); assay type: functional
T3 sequence (Q9H0H5 whole entry): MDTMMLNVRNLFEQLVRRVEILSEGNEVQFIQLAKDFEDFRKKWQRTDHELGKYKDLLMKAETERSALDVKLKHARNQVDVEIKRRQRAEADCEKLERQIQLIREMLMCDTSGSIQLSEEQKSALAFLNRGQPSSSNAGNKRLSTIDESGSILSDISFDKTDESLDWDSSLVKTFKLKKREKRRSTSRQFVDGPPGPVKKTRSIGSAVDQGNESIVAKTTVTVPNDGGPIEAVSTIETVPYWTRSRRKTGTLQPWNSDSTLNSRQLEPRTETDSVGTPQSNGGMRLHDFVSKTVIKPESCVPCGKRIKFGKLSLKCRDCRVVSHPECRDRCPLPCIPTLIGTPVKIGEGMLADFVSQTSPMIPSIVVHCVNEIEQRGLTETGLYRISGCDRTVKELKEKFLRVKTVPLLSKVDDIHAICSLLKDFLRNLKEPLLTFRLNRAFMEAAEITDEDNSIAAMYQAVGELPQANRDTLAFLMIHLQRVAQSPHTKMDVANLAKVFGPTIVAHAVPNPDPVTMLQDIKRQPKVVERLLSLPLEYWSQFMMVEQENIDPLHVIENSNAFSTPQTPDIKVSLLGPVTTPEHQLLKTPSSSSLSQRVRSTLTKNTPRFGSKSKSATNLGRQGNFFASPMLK

Sequence of Cytochrome P450 2C9 (P11712 whole entry): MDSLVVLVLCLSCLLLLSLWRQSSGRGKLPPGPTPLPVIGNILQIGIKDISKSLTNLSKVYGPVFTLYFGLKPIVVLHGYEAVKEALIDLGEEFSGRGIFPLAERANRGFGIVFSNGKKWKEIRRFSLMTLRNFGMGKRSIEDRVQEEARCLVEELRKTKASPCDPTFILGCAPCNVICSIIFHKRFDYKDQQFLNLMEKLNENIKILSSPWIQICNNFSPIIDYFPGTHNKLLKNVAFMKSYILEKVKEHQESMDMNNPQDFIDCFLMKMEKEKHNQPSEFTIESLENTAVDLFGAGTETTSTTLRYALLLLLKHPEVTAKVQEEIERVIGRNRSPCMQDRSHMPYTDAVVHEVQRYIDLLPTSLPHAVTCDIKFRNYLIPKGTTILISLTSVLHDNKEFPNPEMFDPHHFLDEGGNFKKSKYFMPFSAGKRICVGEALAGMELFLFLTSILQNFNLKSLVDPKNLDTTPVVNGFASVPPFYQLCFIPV
Sequence of Cytochrome P450 3A4 (P08684 whole entry): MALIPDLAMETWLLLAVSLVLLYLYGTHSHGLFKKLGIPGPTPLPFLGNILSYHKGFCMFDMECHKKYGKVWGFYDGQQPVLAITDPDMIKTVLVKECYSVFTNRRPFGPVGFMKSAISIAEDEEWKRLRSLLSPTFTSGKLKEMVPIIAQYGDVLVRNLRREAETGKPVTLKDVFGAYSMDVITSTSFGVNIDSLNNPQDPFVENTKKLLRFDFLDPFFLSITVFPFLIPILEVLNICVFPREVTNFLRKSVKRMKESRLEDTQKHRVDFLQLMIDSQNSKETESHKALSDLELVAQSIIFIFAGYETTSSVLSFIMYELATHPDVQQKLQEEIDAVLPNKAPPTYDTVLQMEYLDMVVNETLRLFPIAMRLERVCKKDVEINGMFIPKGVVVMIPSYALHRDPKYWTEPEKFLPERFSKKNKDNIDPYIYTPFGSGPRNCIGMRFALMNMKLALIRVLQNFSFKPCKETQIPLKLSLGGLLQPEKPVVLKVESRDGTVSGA
Sequence of Cytochrome P450 2D6 (P10635 whole entry): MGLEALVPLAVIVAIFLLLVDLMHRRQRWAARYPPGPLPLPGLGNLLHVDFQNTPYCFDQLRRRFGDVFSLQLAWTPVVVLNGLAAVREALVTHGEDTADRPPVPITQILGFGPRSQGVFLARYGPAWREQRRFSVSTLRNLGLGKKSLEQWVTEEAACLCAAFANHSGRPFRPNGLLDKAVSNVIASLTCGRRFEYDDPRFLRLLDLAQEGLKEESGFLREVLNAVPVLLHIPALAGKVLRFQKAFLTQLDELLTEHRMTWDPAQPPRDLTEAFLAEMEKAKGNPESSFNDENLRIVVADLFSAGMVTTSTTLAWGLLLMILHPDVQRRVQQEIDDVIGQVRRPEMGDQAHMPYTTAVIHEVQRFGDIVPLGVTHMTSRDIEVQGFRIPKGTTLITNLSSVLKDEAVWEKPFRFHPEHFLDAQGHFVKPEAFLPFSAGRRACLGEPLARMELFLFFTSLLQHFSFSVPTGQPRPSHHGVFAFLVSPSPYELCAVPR

SMILES: O=C1Nc2ccccc2C1=Nc1sc2c(c1C(=O)NCCc1ccccc1)CCCC2
- AC50 [1]: 4.47 µM (inconclusive)

SMILES: O=[N+]([O-])c1ccccc1CCc1cnc(Cl)s1
- EC50 [2]: > 195 µM (not active)

SMILES: CN1CCN(CC(=O)Nc2nnc(-c3cccs3)s2)CC1
- EC50 [2]: > 195 µM (not active)

SMILES: CCOc1ccccc1NC(=O)CSc1nnc(-c2ccco2)n1Cc1ccco1
- EC50 [3]: > 120 µM (not active)
- EC50 [4]: > 120 µM (not active)
- EC50 [5]: > 120 µM (not active)

SMILES: COc1cc(S(=O)(=O)N2CCCCCC2)c(OC)cc1Br
- AC50 [6]: 1.01 µM (active)

SMILES: Cc1ccc(-c2ccc(=O)n(CCC(=O)NCCN3CCCCC3C)n2)cc1 (stereo unspecified)
- EC50 [2]: > 195 µM (not active)

SMILES: C[C@H](C(=O)c1ccccc1)[C@@H](c1ccccc1)N1CCOCC1
- AC50 [7]: 0.501 µM (inconclusive)

SMILES: CN1CCN(S(=O)(=O)c2cccc(C(=O)Nc3cc(C(F)(F)F)ccc3N3CCCCC3)c2)CC1
- AC50 [6]: 2.5 µM (active)

SMILES: CC1CC1C(=O)OCc1cc(=O)n2cc(Br)ccc2n1 (stereo unspecified)
- EC50 [8]: > 120 µM (not active)
- EC50 [9]: 0.102 µM (active)

SMILES: CCOC(=O)Cn1c(CCC(=O)O)ccc1-c1ccc(F)cc1
- EC50 [2]: > 195 µM (not active)

SMILES: N#Cc1ccsc1NC(=O)COC(=O)c1ccc2ccccc2c1
- EC50 [8]: 17.5 µM (active)

SMILES: CCOc1ccc(C(=O)Nc2ccc3nc(N4CCN(CC)CC4)cc(C)c3c2)cc1
- EC50 [3]: 10.3 µM (active)
- EC50 [4]: > 120 µM (not active)
- EC50 [5]: > 120 µM (not active)

SMILES: COc1ccc(Oc2ncc3nc(-c4cccc(C#N)c4)c(=O)n(CCC#N)c3n2)cc1
- AC50 [10]: 25.1 µM (inconclusive)
- AC50 [11]: 25.1 µM (inconclusive)

SMILES: N=C(NOC(=O)c1cccc(F)c1)c1ccccc1
- EC50 [9]: > 120 µM (not active)

SMILES: Cc1onc(-c2c(Cl)cccc2Cl)c1C(=O)Nc1ccc2c(c1)OCO2
- AC50 [7]: 1 µM (inconclusive)

SMILES: Cc1ccc(N2C(=O)c3ccccc3C2Nc2ccccc2F)nc1 (stereo unspecified)
- EC50 [2]: > 195 µM (not active)

SMILES: CCCCCn1c(=O)c(C(=O)Nc2ccccn2)c(O)c2ccccc21
- EC50 [2]: > 195 µM (not active)
- EC50 [3]: > 120 µM (not active)
- EC50 [4]: 11.2 µM (active)
- EC50 [5]: 9.51 µM (active)

SMILES: COC(=O)C1C(=O)C2=C(CC1C)NC(=O)CC2c1cccc(C)c1 (stereo unspecified)
- AC50 [6]: > 195 µM (inactive)
- AC50 [11]: 15.8 µM (inconclusive)

SMILES: CC(C)(C)C(=O)N1CCN(CCN2C(=O)c3cccc4cccc(c34)C2=O)CC1
- EC50 [2]: > 195 µM (not active)

SMILES: COc1ccc(CNC(=O)Cc2csc(Nc3nc(S)nc4ccccc34)n2)cc1
- AC50 [1]: 0.447 µM (inconclusive)

SMILES: Cc1noc(C)c1-c1ccc2ncnc(NCCN3CCOCC3)c2c1
- AC50 [1]: 31.6 µM (inconclusive)

SMILES: COc1ccc2c(c1)c(=O)oc1c(C)c(OCC(=O)N3CCc4ccccc4C3)ccc12
- AC50 [7]: 3.16 µM (inconclusive)

SMILES: COc1ccc(S(=O)(=O)NCC2CCCN(Cc3ccc(C)o3)C2)cc1 (stereo unspecified)
- EC50 [2]: > 195 µM (not active)

SMILES: Cc1onc(-c2ccccc2)c1C(=O)N1CCN(S(=O)(=O)c2ccc(Cl)cc2)CC1
- EC50 [3]: > 120 µM (not active)
- EC50 [4]: > 120 µM (not active)
- EC50 [5]: > 120 µM (not active)

SMILES: COc1ccc(-n2c(C)nnc2O)cc1OC
- AC50 [11]: 1.78 µM (inconclusive)

SMILES: Cc1c(CCC(=O)N[C@@H](C)C(=O)O)c(=O)oc2cc3oc4c(c3cc12)CCCC4
- EC50 [3]: 12.7 µM (active)
- EC50 [4]: 17 µM (active)
- EC50 [5]: 14.4 µM (active)

SMILES: CCOC(=O)Cn1nnc2c(sc3nc4c(c(-c5ccccc5)c32)CCC4)c1=O
- EC50 [3]: > 120 µM (not active)
- EC50 [4]: 3.88 µM (active)
- EC50 [5]: > 120 µM (not active)

SMILES: O=C1CN=C(c2cccs2)c2c(sc3c2CCCC3)N1
- AC50 [11]: 35.5 µM (inconclusive)

SMILES: CC(C)CN(C(=O)CCCSc1nc2ccccc2[nH]1)c1c(N)n(Cc2ccccc2)c(=O)[nH]c1=O
- EC50 [2]: > 195 µM (not active)

SMILES: O=[N+]([O-])c1ccc(N2CCN(Cc3ccccc3)CC2)c(S(=O)(=O)N2CCOCC2)c1
- AC50 [7]: 12.6 µM (inconclusive)

SMILES: COc1ccc(-c2nc3cnc(N4CCNCC4)nc3n(Cc3cccs3)c2=O)cc1
- AC50 [11]: 39.8 µM (inconclusive)

SMILES: COc1ccc(Oc2ncc3nc(CCc4ccccc4)c(=O)n(C)c3n2)cc1
- AC50 [7]: 7.94 µM (inconclusive)

SMILES: CC(Oc1ccccc1)C(=O)NC1=NCCS1 (stereo unspecified)
- EC50 [8]: 18.9 µM (active)
- EC50 [9]: 94.2 µM (active)

SMILES: CCOC(=O)c1c(C)[nH]c(C(=O)Nc2ccc(NC(C)=O)cc2)c1C
- EC50 [3]: 10.9 µM (active)
- EC50 [4]: 3.99 µM (active)
- EC50 [5]: 10.9 µM (active)

SMILES: CC(C)CCNc1nc(N)c([N+](=O)[O-])c(NCC2CCCO2)n1 (stereo unspecified)
- EC50 [3]: 12 µM (active)
- EC50 [4]: > 120 µM (not active)
- EC50 [5]: > 120 µM (not active)

SMILES: CCN(CC)C1=NC(=[N+](CC)CC)c2ccccc21
- AC50 [1]: 14.1 µM (inconclusive)

SMILES: CCOc1ccccc1C(=O)Nc1ccc(NC(=O)c2ccccc2)cc1
- EC50 [2]: > 195 µM (not active)

SMILES: CSc1ccc2nnc(-c3cccc(F)c3)n2n1
- AC50 [11]: 39.8 µM (inconclusive)

SMILES: COc1ccc2c(c1OC)C(=O)OC2Nc1ccc(S(=O)(=O)N=C(N)N)cc1 (stereo unspecified)
- EC50 [2]: > 195 µM (not active)

SMILES: COc1ccccc1-c1cc(NCc2cccs2)ncn1
- AC50 [7]: 31.6 µM (inconclusive)

SMILES: Cc1ccc(NC(=O)CN2C(=O)NC3(CCCC3)C2=O)c(Cl)c1
- EC50 [2]: > 195 µM (not active)

SMILES: COc1ccc(-c2oc3ccc(N4CCOCC4)cc3c2C#CCO)cc1
- AC50 [6]: 3.96 µM (active)

SMILES: O=S(=O)(c1ccc(F)cc1)N1CCCC(CO)C1 (stereo unspecified)
- AC50 [7]: 25.1 µM (inconclusive)

SMILES: CCN(CC)S(=O)(=O)c1ccc(OC)c(NC(=O)CSc2ccccc2)c1
- AC50 [7]: 31.6 µM (inconclusive)

SMILES: CC(=O)N/N=C(\C)CC(=O)NC(C)(C)C
- EC50 [2]: > 195 µM (not active)

SMILES: CCC(CC)C(=O)Nc1cccc(/C(C)=N/NC(=O)c2c(Br)cnn2C)c1
- AC50 [10]: 12.6 µM (inconclusive)
- AC50 [11]: 8.91 µM (inconclusive)

SMILES: CCCc1[nH]nc2c1/C(=N/O)CC(c1ccccc1)C2 (stereo unspecified)
- EC50 [3]: 12.8 µM (active)
- EC50 [4]: > 120 µM (not active)
- EC50 [5]: 13.4 µM (active)

SMILES: Cc1cccc(C(=O)N/N=C/c2ccc(OC3CSC3)cc2)c1
- AC50 [6]: 1.71 µM (active)

SMILES: COc1cc(/C=N/NC(=O)c2cc(C)oc2C)ccc1O
- EC50 [2]: > 195 µM (not active)
- IC50 [12]: 37.6 µM (active)

SMILES: C=C1/C(=C\C=C2/CCC[C@]3(C)[C@@H]([C@H](C)/C=C/[C@@H](O)C4CC4)CC[C@@H]23)C[C@@H](O)C[C@@H]1O [CALCIPOTRIENE]
- AC50 [6]: 8.81 µM (active)

SMILES: CN(C)CCC[C@@]1(c2ccc(F)cc2)OCc2cc(C#N)ccc21 [ESCITALOPRAM]
- AC50 [1]: 39.8 µM (inconclusive) and 12.6 µM (inconclusive)
